Target: T1, recombinant human NAE enzyme (Homo sapiens, UniProt Q8TBC4)
T1 construct: His (N); made in house; host or cells: Sf9 insect cells (baculovirus, Bac-to-Bac), purified on Ni-NTA
T1 sequence (Q8TBC4 1-463): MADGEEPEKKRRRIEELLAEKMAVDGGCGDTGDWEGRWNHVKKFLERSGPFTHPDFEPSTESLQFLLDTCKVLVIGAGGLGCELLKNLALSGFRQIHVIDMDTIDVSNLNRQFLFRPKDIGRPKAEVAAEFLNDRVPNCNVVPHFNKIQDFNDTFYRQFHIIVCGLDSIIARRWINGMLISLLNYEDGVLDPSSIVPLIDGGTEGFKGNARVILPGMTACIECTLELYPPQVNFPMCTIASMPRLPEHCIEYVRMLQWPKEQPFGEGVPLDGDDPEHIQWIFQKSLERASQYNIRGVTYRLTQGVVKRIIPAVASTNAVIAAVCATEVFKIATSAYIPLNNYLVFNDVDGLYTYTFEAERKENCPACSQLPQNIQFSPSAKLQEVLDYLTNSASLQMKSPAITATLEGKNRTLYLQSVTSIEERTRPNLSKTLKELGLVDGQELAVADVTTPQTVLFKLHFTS
T1 sequence (Q13564 1-534 partner): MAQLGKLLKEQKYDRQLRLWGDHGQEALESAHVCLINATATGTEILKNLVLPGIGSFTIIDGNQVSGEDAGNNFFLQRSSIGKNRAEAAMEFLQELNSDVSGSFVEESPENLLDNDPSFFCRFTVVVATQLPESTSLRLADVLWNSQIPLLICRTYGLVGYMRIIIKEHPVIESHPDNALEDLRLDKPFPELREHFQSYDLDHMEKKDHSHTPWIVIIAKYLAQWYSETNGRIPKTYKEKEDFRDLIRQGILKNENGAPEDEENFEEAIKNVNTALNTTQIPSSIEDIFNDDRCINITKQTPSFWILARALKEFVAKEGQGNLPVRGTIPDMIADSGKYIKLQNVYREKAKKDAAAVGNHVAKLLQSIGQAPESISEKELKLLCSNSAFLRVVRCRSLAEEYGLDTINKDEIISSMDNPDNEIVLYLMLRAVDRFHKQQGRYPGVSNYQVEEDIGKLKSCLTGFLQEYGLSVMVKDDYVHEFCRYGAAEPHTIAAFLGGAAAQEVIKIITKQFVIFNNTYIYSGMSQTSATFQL
Assay: Nedd8-Activating Enzyme (NAE) HTRF Assay
Assay type: biochemical
Details: threshold statement: less than or equal to 100 nM; 20 μM ATP, 90 minutes at 24° C.
Experimental: Following manufacturer instructions, baculoviruses were generated with the Bac-to-Bac Expression System (Invitrogen) for the following proteins: untagged NAEα (APPBP1; NP_003896.1), N-terminally His-tagged NAEβ (UBE1C; NP_003959.3), untagged SAEα (SAE1; NP_005491.1), N-terminally His-tagged SAEβ (UBA2; NP_005490.1), N-terminally His-tagged murine UAE (UBE1X; NP_033483). NAEα/His-NAEβ and SAEα/His-SAEβ complexes were generated by co-infection of Sf9 cells, which were harvested after 48 hours. His-mUAE was generated by single infection of Sf9 cells and harvested after 72 hours. Expressed proteins were purified by affinity chromatography (Ni—NTA agarose, Qiagen) using standard buffers. Ubc12 (UBE2M; NP_003960.1), Ubc9 (UBE2I; NP_003336.1), Ubc2 (UBE2A; NP_003327.2) were subcloned into pGEX (Pharmacia) and expressed as N-terminally GST tagged fusion proteins in E. coli. Expressed proteins were purified by conventional affinity chromatography using standard buffers. Nedd8 (NP_006147), Sumo-1 (NP_003343) and Ubiquitin (with optimized codons) were subcloned into pFLAG-2 (Sigma) and expressed as N-terminally Flag tagged fusion proteins in E. coli. Expressed proteins were purified by conventional chromatography using standard buffers. Nedd8-Activating Enzyme (NAE) HTRF Assay. The NAE enzymatic reaction totaled 50 μL and contained 50 mM HEPES (pH 7.5), 0.05% BSA, 5 mM MgCl2, 20 μM ATP, 250 μM GSH, 0.01 μM Ubc12-GST, 0.075 μM Nedd8-Flag and 0.28 nM recombinant human NAE enzyme. The enzymatic reaction mixture, with and without compound inhibitor, was incubated at 24° C. for 90 minutes in a 384-well plate before termination with 25 μL of Stop/Detection buffer (0.1M HEPES pH 7.5, 0.05% Tween20, 20 mM EDTA, 410 mM KF, 0.53 nM Europium-Cryptate labeled monoclonal anti-FLAG M2 antibody (CisBio International) and 8.125 μg/mL PHYCOLINK goat anti-GST allophycocyanin (XL-APC) antibody (Prozyme)). After incubation for 3 hours at 24° C., quantification of the FRET was performed on the Analyst™ HT 96.384 (Molecular Devices).

Structure (SMILES)	IC50 [nM]
CC(C)(Cc1ncnc2c1ccn2[C@@H]1C[C@@H](COS(N)(=O)=O)[C@@H](O)C1)c1ccccc1 [Compound I-50, {(1S,2S,4R)-2-hydroxy-4-[4-(2-methyl-2-phenylpropyl)-7H-pyrrolo[2,3-d]-pyrimidin-7-yl]cyclopentyl}methyl sulfamate]	≤ 100
CC1(C)C[C@H](Nc2ncnc3c2ccn3[C@@H]2C[C@@H](COS(N)(=O)=O)[C@@H](O)C2)c2ccc(Cl)cc21 [Compound I-67, [(1S,2S,4R)-4-(4-{[(1S)-5-chloro-3,3-dimethyl-2,3-dihydro-1H-inden-1-yl]amino)-7H-pyrrolo[2,3-d]pyrimidin-7-yl)-2-hydroxycyclopentyl]methyl sulfamate]	≤ 100
NS(=O)(=O)OC[C@@H]1C[C@@H](n2ccc3c(NCc4c(F)cccc4F)ncnc32)C[C@@H]1O [Compound I-15, ((1S,2S,4R)-4-{4-[(2,6-dif1uorobenzyl)amino]-7H-pyrrolo[2,3-d]pyrimidin-7-yl}-2-hydroxycyclopentyl)methyl sulfamate]	≤ 100
NS(=O)(=O)OC[C@@H]1C[C@@H](n2ccc3c(NCc4ccc(C(F)(F)F)cc4)ncnc32)C[C@@H]1O [Compound I-8, [(1S,2S,4R)-2-hydroxy-4-(4-{[4-(trifluoromethyl)benzyl]amino}-7H-pyrrolo-[2,3-d]pyrimidin-7-yl)cyclopentyl]methyl sulfamate]	≤ 100
CN(c1ncnc2c1ccn2[C@@H]1C[C@@H](COS(N)(=O)=O)[C@@H](O)C1)[C@H]1CCc2ccccc21 [Compound I-6, ((1S,2S,4R)-4-{4-[(1S)-2,3-dihydro-1H-inden-1-yl(methyl)amino]-7H-pyrrolo-[2,3-d]pyrimidin-7-yl}-2-hydroxycyclopentyl)methyl sulfamate]	≤ 100
NS(=O)(=O)OC[C@@H]1C[C@@H](n2cc(F)c3c(N[C@H]4CCc5ccccc54)ncnc32)C[C@@H]1O [Compound I-68, ((1S,2S,4R)-4-{4-[(1S)-2,3-dihydro-1H-inden-1-ylamino]-5-fluoro-7H-pyrrolo[2,3-d]pyrimidin-7-yl}-2-hydroxycyclopentyl)methyl sulfamate]	≤ 100
NS(=O)(=O)OC[C@@H]1C[C@@H](n2ccc3c(N[C@H]4CCc5cc(Cl)ccc54)ncnc32)C[C@@H]1O [Compound I-27, [(1S,2S,4R)-4-(4-}[(1S)-5-chloro-2,3-dihydro-1H-inden-1-yl]amino}-7H-pyrrolo-[2,3-d]pyrimidin-7-yl)-2-hydroxycyclopentyl]methyl sulfamate]	≤ 100
NS(=O)(=O)OC[C@@H]1C[C@@H](n2ccc3c(NCc4ccc(Cl)c(Cl)c4)ncnc32)C[C@@H]1O [Compound I-24, ((1S,2S,4R)-4-{4-[(3,4-dichlorobenzyl)amino]-7H-pyrrolo[2,3-d]pyrimidin-7-yl}-2-hydroxycyclopentyl)methyl sulfamate]	≤ 100
C[C@@H](Nc1ncnc2c1ccn2[C@@H]1C[C@@H](COS(N)(=O)=O)[C@@H](O)C1)c1ccccc1 [Compound I-7, [(1S,2S,4R)-2-hydroxy-4-(4-{[(1R)-1-phenylethyl]amino}-7H-pyrrolo[2,3-d]-pyrimidin-7-yl)cyclopentyl]methyl sulfamate]	≤ 100
NS(=O)(=O)CC[C@@H]1C[C@@H](n2ccc3c(N[C@H]4CCc5ccccc54)ncnc32)C[C@@H]1O [Compound I-59, 2-((1S,2S,4R)-4-{4-[(1S)-2,3-dihydro-1H-inden-1-ylamino]-7H-pyrrolo[2,3-d]-pyrimidin-7-yl}-2-hydroxycyclopentyl)ethanesulfonamide]	≤ 100
CO[C@@H]1Cc2ccccc2[C@H]1Nc1ncnc2c1ccn2[C@@H]1C[C@@H](COS(N)(=O)=O)[C@@H](O)C1 [Compound I-72, [(1S,2S,4R)-2-hydroxy-4-(4-{[(1R,2R)-2-methoxy-2,3-dihydro-1H-inden-1-yl]amino}-7H-pyrrolo[2,3-d]pyrimidin-7-yl)cyclopentyl]methyl sulfamate]	≤ 100
NS(=O)(=O)OC[C@@H]1C[C@@H](n2ccc3c(NCc4ccccc4C(F)(F)F)ncnc32)C[C@@H]1O [Compound I-47, [(1S,2S,4R)-2-hydroxy-4-(4-{[2-(trifluoromethyl)benzyl]amino}-7H-pyrrolo-[2,3-d]pyrimidin-7-yl)cyclopentyl]methyl sulfamate]	≤ 100
CO[C@H]1Cc2ccccc2[C@H]1Nc1ncnc2c1ccn2[C@@H]1C[C@@H](COS(N)(=O)=O)[C@@H](O)C1 [Compound I-52, [(1S,2S,4R)-2-hydroxy-4-(4-{[(1R,2S)-2-methoxy-2,3-dihydro-1H-inden-1-yl]-amino}-7H-pyrrolo[2,3-d]pyrimidin-7-yl)cyclopentyl]methyl sulfamate]	≤ 100

Continued, values first:

IC50 [nM]	Structure (SMILES)
≤ 100	CC1(C)C[C@@H](Nc2ncnc3c2ccn3[C@@H]2C[C@@H](COS(N)(=O)=O)[C@@H](O)C2)c2ccccc21 (single isomer, unassigned) [Compound I-21]
≤ 100	NS(=O)(=O)OC[C@@H]1C[C@@H](n2cnc3c(NCc4ccc(Cl)cc4)ncnc32)C[C@@H]1O [Compound I-23, ((1S,2S,4R)-4-{6-[(4-chlorobenzyl)amino]-9H-purin-9-yl}-2-hydroxycyclopentyl)methyl sulfamate]
≤ 100	C[C@H](Nc1ncnc2c1ccn2[C@@H]1C[C@@H](COS(N)(=O)=O)[C@@H](O)C1)c1ccccc1 [Compound I-4, [(1S,2S,4R)-2-hydroxy-4-(4-{[(1S)-1-phenylethyl]amino}-7H-pyrrolo[2,3-d]-pyrimidin-7-yl)cyclopentyl]methyl sulfamate]
≤ 100	NS(=O)(=O)OC[C@@H]1C[C@@H](n2ccc3c(N[C@H]4CCOc5ccccc54)ncnc32)C[C@@H]1O [Compound I-12, ((1S,2S,4R)-4-{4-[(4S)-3,4-dihydro-2H-chromen-4-ylamino]-7H-pyrrolo[2,3-d]-pyrimidin-7-yl}-2-hydroxycyclopentyl)methyl sulfamate]
≤ 100	NS(=O)(=O)OC[C@@H]1C[C@@H](n2ccc3c(NCc4ccccc4OC(F)F)ncnc32)C[C@@H]1O [Compound I-2, [(1S,2S,4R)-4-(4-{[2-(difluoromethoxy)benzyl]amino}-7H-pyrrolo[2,3-d]-pyrimidin-7-yl)-2-hydroxycyclopentyl]methyl sulfamate]
≤ 100	CO[C@H]1Cc2ccccc2[C@H]1Nc1ncnc2c1ccn2[C@@H]1C[C@@H](CNS(N)(=O)=O)[C@@H](O)C1 [Compound I-74, N-{[(1S,2S,4R)-2-hydroxy-4-(4-{[(1R,2S)-2-methoxy-2,3-dihydro-1H-inden-1-yl]amino}-7H-pyrrolo[2,3-d]pyrimidin-7-yl)cyclopentyl]methyl}sulfamide]
≤ 100	CNc1ncnc2c1ccn2[C@@H]1C[C@@H](COS(N)(=O)=O)[C@@H](O)C1 [Compound I-40, {(1S,2S,4R)-2-hydroxy-4-[4-(methylamino)-7H-pyrrolo[2,3-d]pyrimidin-7-yl]-cyclopentyl}methyl sulfamate]

Source: patent publication US8207177B2, “Inhibitors of E1 activating enzymes” (Millennium Pharmaceuticals, Inc., priority 2006, dated 2012)
